Source: US8299302B2 (priority 2007, dated 2012)
Where two headings read alike, the source gives them in different places.

Assays:
Podosphaera leucotricha = test: Podosphaera test (apple) / protective; type: in vivo; conditions: 240 h, read-out: efficacy
Method: (§1) To produce a suitable preparation of active compound, 1 part by weight of active compound is mixed with the stated amounts of solvent and emulsifier, and the concentrate is diluted with water to the desired concentration.
(§2) To test for protective activity, young plants are sprayed with the active compound preparation at the stated application rate. After the spray coating has dried on, the plants are inoculated with an aqueous spore suspension of the apple mildew pathogen Podosphaera leucotricha. The plants are then placed in a greenhouse at about 23° C. and a relative atmospheric humidity of about 70%.
(§3) Evaluation is carried out 10 days after the inoculation. 0% means an efficacy which corresponds to that of the control, whereas an efficacy of 100% means that no infection is observed.

Sphaerotheca fuliginea = test: Sphaerotheca test (cucumber) / protective; type: in vivo; conditions: Podosphaera fuliginea, 168 h, read-out: efficacy
Method: as §1
as §2, with “dried,” for “dried on,”, “Sphaerotheca fuliginea.” for “the apple mildew pathogen Podosphaera leucotricha.”
Evaluation is carried out 7 days after the inoculation. 0% means an efficacy which corresponds to that of the control, whereas an efficacy of 100% means that no infection is observed.

Botrytis cinerea = test: Botrytis test (bean) / protective; type: in vivo; conditions: 48 h, read-out: efficacy
Method: as §1
To test for protective activity, young plants are sprayed with the active compound preparation at the stated application rate. After the spray coating has dried on, 2 small pieces of agar overgrown with Botrytis cinerea are placed on each leaf. The inoculated plants are then placed in a darkened chamber at about 20° C. and 100% relative atmospheric humidity.
Two days after the inoculation the size of the infected spots on the leaves is evaluated. 0% means an efficacy which corresponds to that of the control, whereas an efficacy of 100% means that no infection is observed.

Uromyces appendiculatus = test: Uromyces test (bean) / protective; type: in vivo; conditions: 240 h, read-out: efficacy
Method: as §1
To test for protective activity, young plants are sprayed with the active compound preparation at the stated application rate. After the spray coating has dried on, the plants are inoculated with an aqueous spore suspension of the bean rust pathogen Uromyces appendiculatus and then remain in an incubation cabin at about 20° C. and 100% relative atmospheric humidity for 1 day.
The plants are then placed in a greenhouse at about 21° C. and a relative atmospheric humidity of about 90%.
as §3

Puccinia recondita = test: Puccinia test (wheat) / protective; type: in vivo; conditions: 240 h, read-out: efficacy
Method: as §1
To test for protective activity, young plants are sprayed with the active compound preparation at the stated application rate. After the spray coating has dried on, the plants are sprayed with a conidia suspension of Puccinia recondita. The plants remain in an incubation cabin at 20° C. and 100% relative atmospheric humidity for 48 hours.
The plants are then placed in a greenhouse at a temperature of about 20° C. and a relative atmospheric humidity of 80% to promote the development of rust pustules.
as §3

[1] = apple plants, protective spray, active compound concentration 100 ppm, evaluation 10 days after inoculation
[2] = cucumber plants, protective spray, active compound concentration 100 ppm, evaluation 7 days after inoculation
[3] = bean plants, protective spray, active compound concentration 250 ppm, evaluation two days after inoculation
[4] = bean plants, protective spray, active compound concentration 10 ppm, evaluation 10 days after inoculation
[5] = wheat plants, protective spray, active compound concentration 1000 ppm, evaluation 10 days after inoculation

Compound	log P (pH 2.3)	logP (logP (acidic, pH 2.3); pH 2.3, log P (pH 2.3), pH 2.3)	logP (logP (acidic, pH 2.3); pH 2.3, logP acidic, acidic)	pest or weed control at 100 ppm (Podosphaera leucotricha; [1]) [%]	pest or weed control at 100 ppm (Sphaerotheca fuliginea; [2]) [%]	pest or weed control at 250 ppm (Botrytis cinerea; [3]) [%]	pest or weed control at 10 ppm (Uromyces appendiculatus; [4]) [%]	pest or weed control at 1000 ppm (Puccinia recondita; [5]) [%]	pest or weed control at 100 ppm (Podosphaera leucotricha) [%]	pest or weed control at 100 ppm (Sphaerotheca fuliginea) [%]	pest or weed control at 250 ppm (Botrytis cinerea) [%]	pest or weed control at 10 ppm (Uromyces appendiculatus) [%]	pest or weed control at 1000 ppm (Puccinia recondita) [%]	logP (logP (acidic, pH 2.3); pH 2.3)
4-(4-Cyclohexylphenoxy)-2,5-dimethylnitrobenzene	6.69	–	–	–	–	–	–	–	–	–	–	–	–	–
CCN(C)C=Nc1cc(C)c(Oc2ccc(-c3ccc(F)cc3)cc2)cc1C [Compound 11]	–	–	–	–	–	–	–	–	≥ 70	≥ 70	≥ 70	≥ 70	≥ 70	2.69
CCc1ccccc1-c1ccc(Oc2cc(C)c(N=CN(C)CC)cc2C)cc1 [Compound 13]	–	–	–	–	–	–	–	–	≥ 70	≥ 70	≥ 70	≥ 70	≥ 70	2.89
CCN(C)C=Nc1cc(C)c(Oc2ccc(-c3ccccc3C)cc2)cc1C [Compound 16]	–	–	–	–	–	–	–	–	≥ 70	≥ 70	≥ 70	≥ 70	≥ 70	2.75
CCN(C)C=Nc1cc(C)c(Oc2ccc(-c3ccccc3F)cc2)cc1C [Compound 17]	–	–	–	–	–	–	–	–	≥ 70	≥ 70	≥ 70	≥ 70	≥ 70	2.56
CCN(C)C=Nc1cc(C)c(Oc2ccc(-c3ccccc3C(C)=O)cc2)cc1C [Compound 18]	–	–	–	–	–	–	–	–	≥ 70	≥ 70	≥ 70	≥ 70	≥ 70	2.29

Now from value to compound, other results behind:

log P (pH 2.3)	logP (logP (acidic, pH 2.3); pH 2.3, log P (pH 2.3), pH 2.3)	logP (logP (acidic, pH 2.3); pH 2.3, logP acidic, acidic)	Compound	pest or weed control at 100 ppm (Podosphaera leucotricha; [1]) [%]	pest or weed control at 100 ppm (Sphaerotheca fuliginea; [2]) [%]	pest or weed control at 250 ppm (Botrytis cinerea; [3]) [%]	pest or weed control at 10 ppm (Uromyces appendiculatus; [4]) [%]	pest or weed control at 1000 ppm (Puccinia recondita; [5]) [%]	pest or weed control at 100 ppm (Podosphaera leucotricha) [%]	pest or weed control at 100 ppm (Sphaerotheca fuliginea) [%]	pest or weed control at 250 ppm (Botrytis cinerea) [%]	pest or weed control at 10 ppm (Uromyces appendiculatus) [%]	pest or weed control at 1000 ppm (Puccinia recondita) [%]	logP (logP (acidic, pH 2.3); pH 2.3)
4.86	–	–	4-(4-Bromophenoxy)-2,5-dimethylnitrobenzene	–	–	–	–	–	–	–	–	–	–	–
–	2.57	2.47	CCN(C)C=Nc1cc(C)c(Oc2ccc(-c3ccc(OC)cc3)cc2)cc1C [Compound 5, N-ethyl-N′-{4-[(4′-methoxybiphenyl-4-yl)oxy]-2,5-dimethylphenyl}-N-methylimidoformamide]	≥ 70	≥ 70	≥ 70	≥ 70	≥ 70	–	–	–	–	–	–
–	–	2.67	CCN(C)C=Nc1cc(C)c(Oc2ccc(-c3ccc(SC)cc3)cc2)cc1C [Compound 6, N′-(2,5-dimethyl-4-{[4′-(methylthio)biphenyl-4-yl]oxy}phenyl)-N-ethyl-N-methylimidoformamide]	≥ 70	≥ 70	≥ 70	≥ 70	≥ 70	–	–	–	–	–	–
–	–	2.67	CCN(C)C=Nc1cc(C)c(Oc2ccc(-c3ccccc3Cl)cc2)cc1C [Compound 27, N′-{4-[(2′-chlorobiphenyl-4-yl)oxy]-2,5-dimethylphenyl}-N-ethyl-N-methylimidoformamide]	≥ 70	≥ 70	≥ 70	≥ 70	≥ 70	–	–	–	–	–	–
–	–	2.87	CCN(C)C=Nc1cc(C)c(Oc2ccc(C3CCCC3)cc2)cc1C [Compound 32, N′-[4-(4-cyclopentylphenoxy)-2,5-dimethylphenyl]-N-ethyl-N-methylimidoformamide]	≥ 70	≥ 70	≥ 70	≥ 70	≥ 70	–	–	–	–	–	–
–	–	3	Cc1cc(Oc2ccc(C3CCCC3)cc2)c(C)cc1N=CN(C)C(C)C [Compound 33, N′-[4-(4-cyclopentylphenoxy)-2,5-dimethylphenyl]-N-isopropyl-N-methylimidoformamide]	≥ 70	≥ 70	≥ 70	≥ 70	≥ 70	–	–	–	–	–	–
–	2.99	2.99	CCN(C)C=Nc1cc(C)c(Oc2ccc(C3CCCCC3)cc2)cc1C [Compound 38, N′-{4-[4-cyclohexylphenoxy]-2,5-dimethylphenyl}-N-ethyl-N-methylimidoformamide]	≥ 70	≥ 70	≥ 70	≥ 70	≥ 70	–	–	–	–	–	–
–	–	3.46	Cc1cc(Oc2ccc(C3CCCCC3)cc2)c(C)cc1/N=C/N1CCCCC1 [Compound 41, 4-(4-cyclohexylphenoxy)-2,5-dimethyl-N-[(1E)-piperidin-1-ylmethylene]aniline]	≥ 70	≥ 70	≥ 70	≥ 70	≥ 70	–	–	–	–	–	–
